This note sets out measurements from patent US10336701B2, “Pyridin-2-one derivatives of formula (II) useful as EP3 receptor antagonists” (Janssen Pharmaceutica NV, priority 2017, dated 2019).

Test [1] deals with T1, EP3 receptor (Homo sapiens, UniProt P43115).
T1 construct: purchased Millipore HTS092M
T1 sequence (P43115 1-390): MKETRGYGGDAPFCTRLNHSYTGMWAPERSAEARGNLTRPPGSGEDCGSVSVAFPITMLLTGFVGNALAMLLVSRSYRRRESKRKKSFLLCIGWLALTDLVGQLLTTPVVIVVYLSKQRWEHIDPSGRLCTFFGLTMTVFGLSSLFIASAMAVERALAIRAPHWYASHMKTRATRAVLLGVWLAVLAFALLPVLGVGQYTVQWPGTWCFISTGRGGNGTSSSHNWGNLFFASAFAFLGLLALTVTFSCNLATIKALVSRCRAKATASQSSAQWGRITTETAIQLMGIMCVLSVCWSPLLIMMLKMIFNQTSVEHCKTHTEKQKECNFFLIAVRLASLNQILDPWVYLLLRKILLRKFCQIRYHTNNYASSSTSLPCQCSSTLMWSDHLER
Description: CHO cell cAMP assay (forskolin and sulprostone stimulated, HTRF). Particulars: CHO cells; sulprostone 700 nM (EC80) and FSK 2 μM (EC70), 37° C. for 30 minutes; read-out: CHO_cAMP IC50. Format: cell-based. For orientation: Cyclic AMP is a second messenger, typically raised through Gs and lowered through Gi signalling.

Test [2] has as its target T1, EP3 receptor. Description: [3H]-PGE2 binding assay (EP3 competition binding). The following applies: read-out: [3H]-PGE2 Binding Ki. In short, it runs like this: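 Scintillation-bead competition binding with EP3 membranes (2 μg/well), 2 nM [3H]-PGE2, 0.1% DMSO, in 50 mM Tris, 10 mM MgCl2, 1 mM EDTA, pH 7.4.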

pIC50, pKi: −log10 of the molar value. Some results are limits rather than exact numbers.

Usually pIC50 stands for the IC50 on a negative log10 scale, so that one unit is a factor of ten. By pKi is commonly meant −log10 of the Ki, conventionally taken in molar units.

`CC(C)C(/C=C1\OC(=O)NC1=O)c1ccc(-c2cc(F)c3cnn(C(C)C)c3c2)[nH]c1=O` (centres unmarked) [compound 122, (Z)-5-(2-(6-(4-fluoro-1-isopropyl-1H-indazol-6-yl)-2-oxo-1,2-dihydropyridin-3-yl)-3-methylbutylidene)oxazolidine-2,4-dione]: the pIC50 on EP3 receptor [1] is 6.56. Moreover, at EP3 receptor [2], the pKi was 7.49.
In the case of `O=c1[nH]c(-c2ccc3ccccc3c2)ccc1C1CCOCC1` [compound 192, 6-(naphthalen-2-yl)-3-(tetrahydro-2H-pyran-4-yl)pyridin-2(1H)-one], the negative-log IC50 (pIC50) at EP3 receptor [1] was 5.88. Besides, the pKi on EP3 receptor [2] was 7.22.
Regarding `CC(C)C(C(=O)NC1CCSCC1)c1ccc(-c2ccc3cccc(F)c3c2)[nH]c1=O` (centres unmarked) [compound 183, 2-(6-(8-fluoronaphthalen-2-yl)-2-oxo-1,2-dihydropyridin-3-yl)-3-methyl-N-(tetrahydro-2H-thiopyran-4-yl)butanamide], at EP3 receptor [1], the pIC50 was 9.00. Moreover, at EP3 receptor [2], the pKi was 8.52.
As for `CC(C)C(C(=O)NS(C)(=O)=O)c1ccc(-c2ccc3ccccc3c2)[nH]c1=O` (centres unmarked) [compound 221, 3-methyl-N-(methylsulfonyl)-2-(6-(naphthalen-2-yl)-2-oxo-1,2-dihydropyridin-3-yl)butanamide], at EP3 receptor [1], the pIC50 was 6.61. The negative logarithm of the Ki (pKi) on EP3 receptor [2] is 7.29.
For `CCC(/C=C1/OC(=O)NC1=O)(CC)c1ccc(-c2ccc3c(c2)OC(C)(C)C=C3)[nH]c1=O` [compound 28, 5-(2-(6-(2,2-dimethyl-2H-chromen-7-yl)-2-oxo-1,2-dihydropyridin-3-yl)-2-ethylbutylidene)oxazolidine-2,4-dione], the pIC50 at EP3 receptor [1] was under 4.70. The negative logarithm of the Ki (pKi) at EP3 receptor [2] is 5.25.
Consider `CCn1cc2c(C)cc(-c3ccc(C(/C=C4\OC(=O)NC4=O)C(C)C)c(=O)[nH]3)cc2n1` (centres unmarked) [compound 98, (Z)-5-(2-(6-(2-ethyl-4-methyl-2H-indazol-6-yl)-2-oxo-1,2-dihydropyridin-3-yl)-3-methylbutylidene)oxazolidine-2,4-dione], for which the pIC50 at EP3 receptor [1] is under 4.70. Moreover, the pKi at EP3 receptor [2] is under 5.00.
For the compound `CCn1ncc2c(F)cc(-c3ccc(C(CC)(CC)CC4OC(=O)NC4=O)c(=O)[nH]3)cc21` (centres unmarked) [compound 56, 5-(2-ethyl-2-(6-(1-ethyl-4-fluoro-1H-indazol-6-yl)-2-oxo-1,2-dihydropyridin-3-yl)butyl)oxazolidine-2,4-dione], the pIC50 on EP3 receptor [1] was 6.64. At EP3 receptor [2], the pKi is 7.70.
With `CCn1ncc2c(C)cc(-c3ccc(C(/C=C4\OC(=O)NC4=O)C(C)C)c(=O)[nH]3)cc21` (centres unmarked) [compound 106, (Z)-5-(2-(6-(1-ethyl-4-methyl-1H-indazol-6-yl)-2-oxo-1,2-dihydropyridin-3-yl)-3-methylbutylidene)oxazolidine-2,4-dione], at EP3 receptor [1], the pIC50 was 6.26. Besides, at EP3 receptor [2], the pKi is 7.30.
As to `CC(C)C1(Cc2ccc(-c3ccc4cccc(F)c4c3)[nH]c2=O)NC(=O)NC1=O` (centres unmarked) [compound 263, 5-((6-(8-fluoronaphthalen-2-yl)-2-oxo-1,2-dihydropyridin-3-yl)methyl)-5-isopropylimidazolidine-2,4-dione], the pIC50 on EP3 receptor [1] is 6.47. Besides, the pKi at EP3 receptor [2] was 6.97.
Take `O=C1NC(=O)/C(=C/C(c2ccc(-c3ccc4cccc(F)c4c3)[nH]c2=O)C2CCCCC2)O1` (centres unmarked) [compound 134, (Z)-5-(2-cyclohexyl-2-(6-(8-fluoronaphthalen-2-yl)-2-oxo-1,2-dihydropyridin-3-yl)ethylidene)oxazolidine-2,4-dione]: the pIC50 on EP3 receptor [1] is 8.10. Moreover, at EP3 receptor [2], the pKi is 8.40.
As for `CC(C)C(c1ccc(-c2ccc3cccc(F)c3c2)[nH]c1=O)N(C)C(N)=O` (centres unmarked) [compound 265, 1-(1-(6-(8-fluoronaphthalen-2-yl)-2-oxo-1,2-dihydropyridin-3-yl)-2-methylpropyl)-1-methylurea], the pIC50 at EP3 receptor [1] is 6.60. The pKi on EP3 receptor [2] is 7.47.
Regarding `CCOC(=O)C(C1=CCCCC1)c1ccc(-c2ccc3ccccc3c2)[nH]c1=O` (centres unmarked) [Compound #280, ethyl 2-(cyclohex-1-en-1-yl)-2-(6-(naphthalen-2-yl)-2-oxo-1,2-dihydropyridin-3-yl)acetate], on EP3 receptor [1], the pIC50 is 6.17. For the same compound, the pKi at EP3 receptor [2] is 7.12.
As to `CC(C)C(F)(C(N)=O)c1ccc(-c2ccc3ccccc3c2)[nH]c1=O` (centres unmarked) [compound 217, 2-fluoro-3-methyl-2-(6-(naphthalen-2-yl)-2-oxo-1,2-dihydropyridin-3-yl)butanamide], on EP3 receptor [1], the pIC50 was 5.94. The pKi at EP3 receptor [2] was 7.31.
For `CC1(c2ccc(-c3ccc4ccccc4c3)[nH]c2=O)C(=O)Nc2nncn21` (centres unmarked) [compound 152, 3-[5-methyl-6-oxo-5H, 6H, 7H-imidazo[2,1-c][1,2,4]triazol-5-yl]-6-(naphthalen-2-yl)-1,2-dihydropyridin-2-one], the pIC50 at EP3 receptor [1] was 5.67. In addition, at EP3 receptor [2], the pKi is 6.37.
`CC(C)C(Cc1ccc(-c2ccc3cccc(F)c3c2)[nH]c1=O)C1OC(=O)NC1=O` (centres unmarked) [Compound #308, 5-(1-(6-(8-fluoronaphthalen-2-yl)-2-oxo-1,2-dihydropyridin-3-yl)-3-methylbutan-2-yl)oxazolidine-2,4-dione]: on EP3 receptor [1], the pIC50 was 6.68. Also, the pKi on EP3 receptor [2] is 7.34.
As for `CC(C)C(CC1OC(=O)NC1=O)c1ccc(-c2ccc3cccc(F)c3c2)[nH]c1=O` (centres unmarked) [compound 77], at EP3 receptor [1], the pIC50 was 7.22. Besides, the pKi at EP3 receptor [2] is 7.80.
Consider `CC(C)C(Cc1ccc(-c2ccc3cccc(F)c3c2)[nH]c1=O)c1nnn[nH]1` (centres unmarked) [compound 270, 6-(8-Fluoronaphthalen-2-yl)-3-(3-methyl-2-(1H-tetrazol-5-yl)butyl)pyridin-2(1H)-one], for which the pIC50 on EP3 receptor [1] is 6.27. The pKi on EP3 receptor [2] was 6.79.
Consider `CC(C)C(C(=O)NCCN(C)C)c1ccc(-c2ccc3c(c2)OCCN3C)[nH]c1=O` (centres unmarked) [compound 244, N-(2-(dimethylamino)ethyl)-3-methyl-2-(6-(4-methyl-3,4-dihydro-2H-benzo[b][1,4]oxazin-7-yl)-2-oxo-1,2-dihydropyridin-3-yl)butanamide], for which the pIC50 on EP3 receptor [1] is 5.62. Besides, at EP3 receptor [2], the negative logarithm of the Ki (pKi) was 6.30.
On to `CC(C)C(F)(C(=O)NS(=O)(=O)c1cc(F)cc(F)c1)c1ccc(-c2ccc3cccc(F)c3c2)[nH]c1=O` (centres unmarked) [compound 173, N-((3,5-difluorophenyl)sulfonyl)-2-fluoro-2-(6-(8-fluoronaphthalen-2-yl)-2-oxo-1,2-dihydropyridin-3-yl)-3-methylbutanamide], for which, at EP3 receptor [1], the pIC50 was 5.88. Also, the pKi on EP3 receptor [2] was 6.82.
With `CC(C)C(CC(N)=O)c1ccc(-c2ccc3ccccc3c2)[nH]c1=O` (centres unmarked) [compound 249, 4-methyl-3-(6-(naphthalen-2-yl)-2-oxo-1,2-dihydropyridin-3-yl)pentanamide], at EP3 receptor [1], the pIC50 is 7.28. In addition, the negative-log Ki (pKi) on EP3 receptor [2] was 8.30.
In the same order, the values of `CCn1ncc2c(C)cc(-c3ccc(C(CC4OC(=O)NC4=O)C(C)C)c(=O)[nH]3)cc21` (centres unmarked) [compound 126, 5-(2-(6-(1-ethyl-4-methyl-1H-indazol-6-yl)-2-oxo-1,2-dihydropyridin-3-yl)-3-methylbutyl)oxazolidine-2,4-dione] are 6.42 and 7.19.
For the compound `CCN1CCOc2ccc(-c3ccc(C(c4noc(=O)[nH]4)C(C)C)c(=O)[nH]3)cc21` (centres unmarked) [Compound #278, 3-(1-(6-(4-ethyl-3,4-dihydro-2H-benzo[b][1,4]oxazin-6-yl)-2-oxo-1,2-dihydropyridin-3-yl)-2-methylpropyl)-1,2,4-oxadiazol-5(4H)-one], the pIC50 at EP3 receptor [1] was 6.23. In addition, the pKi at EP3 receptor [2] is 6.43.
